Source: paper PMC4189701 (Drug Design, Development and Therapy, 2014)
Where “and” joins values, the source holds several entries; their conditions need not be identical. Equal entries are not always repeated. Entries after “also recorded” stand apart in the source; their conditions may differ. Where two headings read alike, the source gives them in different places.

Tests used:
[1] = mice and dogs; preclinical studies; cited from earlier work
[2] = Tolerability over the whole study; type: in vivo, human
[3] = tested on: cytochrome P450 (CYP)-3A4; conditions: human hepatocytes; ref unpublished data; cited from earlier work
[4] = tested on: K103N; conditions: major efavirenz-resistant mutation; ref unpublished data; cited from earlier work
[5] = Multiple-dose; type: in vivo, human; conditions: for steady state attained: RM-ANOVA of predose concentrations; for Accumulation index: AUC144–168h/AUC0–24h; for Accumulation index / AUCτ,ss/dose / CL/F / Cmax,ss/dose / fe: mean ± SD; for fe: unchanged in urine
[6] = Tolerability; type: in vivo, human
[7] = Tolerability; type: in vivo, human; conditions: single dose
[8] = Pharmacokinetics over single- and multiple-dose studies together; type: in vivo, human
[9] = tested on: CYP3A4 mRNA; test: CYP3A4 mRNA content in primary human hepatocytes; type: in vitro ADME; conditions: human
[10] = tested on: CYP3A4 messenger ribonucleic acid (mRNA); test: CYP3A4 mRNA content in primary human hepatocytes; type: in vitro ADME; conditions: summary in words
[11] = tested on: CYP3A; test: CYP3A enzyme activity; type: in vitro ADME; conditions: primary human hepatocytes
[12] = Single-dose pharmacokinetics in healthy subjects; type: in vivo, human; conditions: for AUC(0-inf) / AUC(0-t) / Cmax / Tmax / half-life: human, plasma, oral; for AUC∞/dose / Cmax/dose / fe / CL/F: mean ± SD; for fe: unchanged in urine
[13] = tested on: laboratory strains and clinical HIV-1 isolates; conditions: preclinical; ref unpublished data; cited from earlier work
[14] = cited from earlier work; for dose proportionality of Cmax or AUC: healthy subjects
[15] = 75–600 mg, single or multiple doses

In the case of `CCn1c(C(=O)c2cc(C)cc(C#N)c2)c(C(C)C)c(=O)[nH]c1=O` [KM-023, 3-[3-ethyl-5-isopropyl-2,6-dioxo-1,2,3,6-tetrahydro-pyrimidine-4-carbonyl]-5-methyl benzonitrile], the “findings in in vivo safety pharmacology studies” value [1] is listed as “no significant findings”, the “epistaxis, occurrences” value ([2]; both studies, all deemed drug-related) is listed as “seven” and the “changes from baseline in clinical laboratory test results, vital signs, electrocardiography, computerized impedance cardiography, or physical examinations” value ([2]; single or multiple doses) is listed as “no clinically meaningful changes from baseline”. The “serious AEs” value ([2]; single or multiple doses 75–600 mg) was “No serious AEs occurred”, the tolerability ([2]; single or multiple doses 75–600 mg, healthy subjects) was “generally well tolerated without serious adverse events; also recorded: well tolerated” and the CYP3A4 induction [3] was “moderately induced”. The “activity against K103N” value [4] was “showed activity against K103N”, the steady state attained ([5]; 75 mg once daily) was greater than 4 days and the “accumulation after multiple doses” value ([5]; 600 mg dose group) was 0.6 fold. For the same compound, the steady state attained ([5]; 150–600 mg once daily) was greater than 6 days, the Accumulation index ([5]; multiple doses 75 mg) was 1.1±0.2 and the “AUCτ,ss/dose” value ([5]; multiple doses 75 mg) was 49.3 ± 13.4 ng·mL·h/mg. The CL/F ([5]; multiple doses 75 mg) was 21.5 ± 5.4 L/h, the “Cmax,ss/dose” value ([5]; multiple doses 75 mg) was 5.1 ± 1.7 ng/mL/mg and the fe ([5]; multiple doses 75 mg) was 0.52±0.40%. For the same compound, the Accumulation index ([5]; multiple doses 150 mg) was 1.1±0.5, the “AUCτ,ss/dose” value ([5]; multiple doses 150 mg) was 55.0 ± 27.1 ng·mL·h/mg and the CL/F ([5]; multiple doses 150 mg) was 22.3 ± 10.2 L/h. The “Cmax,ss/dose” value ([5]; multiple doses 150 mg) was 4.9 ± 1.7 ng/mL/mg, the fe ([5]; multiple doses 150 mg) was 0.75±0.52% and the Accumulation index ([5]; multiple doses 300 mg) was 0.9±0.2. The “AUCτ,ss/dose” value ([5]; multiple doses 300 mg) was 22.7 ± 6.3 ng·mL·h/mg, the CL/F ([5]; multiple doses 300 mg) was 48.0 ± 17.6 L/h and the “Cmax,ss/dose” value ([5]; multiple doses 300 mg) was 2.4 ± 0.6 ng/mL/mg. The fe ([5]; multiple doses 300 mg) was 0.28±0.15%, the Accumulation index ([5]; multiple doses 600 mg) was 0.6 and 0.6±0.1 and the “AUCτ,ss/dose” value ([5]; multiple doses 600 mg) was 17.1 ± 9.5 ng·mL·h/mg. The CL/F ([5]; multiple doses 600 mg) was 71.9 ± 28.1 L/h, the “Cmax,ss/dose” value ([5]; multiple doses 600 mg) was 1.8 ± 0.8 ng/mL/mg and the fe ([5]; multiple doses 600 mg) was 0.18±0.12%. For the same compound, the “Gastrointestinal disorders, all AEs, number of events” value ([6]; multiple doses) was 3 (3), the “Gastrointestinal disorders, all AEs, number of subjects” value ([6]; multiple doses) was 3 (3) and the “Gastrointestinal disorders, drug-related AEs, number of events” value ([6]; multiple doses) was 3 (3). The “Gastrointestinal disorders, drug-related AEs, number of subjects” value ([6]; multiple doses) was 3 (3), the “Nervous system disorders, all AEs, number of events” value ([6]; multiple doses) was 4 (4) and the “Nervous system disorders, all AEs, number of subjects” value ([6]; multiple doses) was 4 (4). The “Nervous system disorders, drug-related AEs, number of events” value ([6]; multiple doses) was 4 (4), the “Nervous system disorders, drug-related AEs, number of subjects” value ([6]; multiple doses) was 4 (4) and the “Oropharyngeal, respiratory, thoracic, and mediastinal disorders, all AEs, number of events” value ([6]; multiple doses) was 13. The “Oropharyngeal, respiratory, thoracic, and mediastinal disorders, all AEs, number of subjects” value ([6]; multiple doses) was 12, the “Oropharyngeal, respiratory, thoracic, and mediastinal disorders, drug-related AEs, number of events” value ([6]; multiple doses) was 9 and the “Oropharyngeal, respiratory, thoracic, and mediastinal disorders, drug-related AEs, number of subjects” value ([6]; multiple doses) was 8. For the same compound, the “Skin and subcutaneous tissue disorders, all AEs, number of events” value ([6]; multiple doses) was 4, the “Skin and subcutaneous tissue disorders, all AEs, number of subjects” value ([6]; multiple doses) was 3 and the “Skin and subcutaneous tissue disorders, drug-related AEs, number of events” value ([6]; multiple doses) was 1 (1). The “Skin and subcutaneous tissue disorders, drug-related AEs, number of subjects” value ([6]; multiple doses) was 1 (1), the “Total, drug-related AEs, number of subjects” value ([6]; multiple doses) was 16 and the “epistaxis, occurrences” value ([6]; multiple-dose study) was “five”. For the same compound, the “epistaxis, subjects” value ([6]; multiple-dose study) was “four”, the “General disorder, all AEs, number of events” value [7] was 2 (2) and the “General disorder, all AEs, number of subjects” value [7] was 2 (2). The “General disorder, drug-related AEs, number of events” value [7] was 1 (1), the “General disorder, drug-related AEs, number of subjects” value [7] was 1 (1) and the “Genitourinary disorders, all AEs, number of events” value [7] was 1 (1). The “Genitourinary disorders, all AEs, number of subjects” value [7] was 1 (1), the “Genitourinary disorders, drug-related AEs, number of events” value [7] was 1 (1) and the “Genitourinary disorders, drug-related AEs, number of subjects” value [7] was 1 (1). The “Musculoskeletal disorders, all AEs, number of events” value [7] was 2, the “Musculoskeletal disorders, all AEs, number of subjects” value [7] was 1 and the “Musculoskeletal disorders, drug-related AEs, number of events” value [7] was 2. For the same compound, the “Musculoskeletal disorders, drug-related AEs, number of subjects” value [7] was 1, the “Nervous system disorders, all AEs, number of events” value [7] was 4 (4) and the “Nervous system disorders, all AEs, number of subjects” value [7] was 4 (4). For the same compound, the “Nervous system disorders, drug-related AEs, number of events” value [7] was 3 (3), the “Nervous system disorders, drug-related AEs, number of subjects” value [7] was 3 (3) and the “Ophthalmologic disorders, all AEs, number of events” value [7] was 1 (1). The “Ophthalmologic disorders, all AEs, number of subjects” value [7] was 1 (1), the “Oropharyngeal, respiratory, thoracic, and mediastinal disorders, all AEs, number of events” value [7] was 7 and the “Oropharyngeal, respiratory, thoracic, and mediastinal disorders, all AEs, number of subjects” value [7] was 6. The “Oropharyngeal, respiratory, thoracic, and mediastinal disorders, drug-related AEs, number of events” value [7] was 2, the “Oropharyngeal, respiratory, thoracic, and mediastinal disorders, drug-related AEs, number of subjects” value [7] was 1 and the “Total, all AEs, number of events” value [7] was 17. For the same compound, the “dose proportionality of Cmax and AUC” value [8, 15] was “Dose proportionality was not observed; also recorded: less than dose-proportional nonlinear pharmacokinetics”, the “pharmacokinetic characteristics (linearity)” value [8, 15] was “dose- and time-dependent nonlinear pharmacokinetic characteristics; also recorded: dose-and time-dependent nonlinear pharmacokinetics; also recorded: dose- and time-dependent nonlinear pharmacokinetic profiles” and the fe ([8]; all dose levels, unchanged drug in urine) was “less than 1%”. The fold induction at 0.3 µM [9] was 2.3, the fold induction at 3 µM [9] was 6.2 and the fold induction at 30 µM [9] was 6.2. The “CYP3A4 messenger ribonucleic acid induction” value [10] was “CYP3A4 messenger ribonucleic acid induction”, the fold induction at 0.3 µM ([11]; human, probe testosterone) was 1.9 and the fold induction at 3 µM ([11]; human, probe testosterone) was 5. The fold induction at 30 µM ([11]; human, probe testosterone) was 8.8, the CYP3A enzyme activation ([11]; summary in words) was “exhibited a potential for CYP3A enzyme activation” and the AUC(0-inf) ([12]; 75 mg) was 11100 ng·h/mL. It also gave an AUC(0-t) ([12]; 75 mg) of 8740 ng·h/mL, a Cmax ([12]; 75 mg) of 440 ± 68.3 ng/mL and a Tmax ([12]; 75 mg) of 2 h. For the same compound, the half-life ([12]; 75 mg) was 29.3 ± 12.5 h, the AUC(0-inf) ([12]; 150 mg) was 14100 ng·h/mL and the AUC(0-t) ([12]; 150 mg) was 11200 ng·h/mL. The Cmax ([12]; 150 mg) was 621 ± 105 ng/mL, the Tmax ([12]; 150 mg) was 2 h and the half-life ([12]; 150 mg) was 29.5 ± 11.9 h. It also gave an AUC(0-inf) ([12]; 300 mg) of 18100 ng·h/mL, an AUC(0-t) ([12]; 300 mg) of 14700 ng·h/mL and a Cmax ([12]; 300 mg) of 832 ± 201 ng/mL. The Tmax ([12]; 300 mg) was 2 h, the half-life ([12]; 300 mg) was 31.2 ± 21.1 h and the AUC(0-inf) ([12]; 600 mg) was 33700 ng·h/mL. For the same compound, the AUC(0-t) ([12]; 600 mg) was 26800 ng·h/mL, the Cmax ([12]; 600 mg) was 1250 ng/mL and the Tmax ([12]; 600 mg) was 3 h. The half-life ([12]; 600 mg) was 29.7 ± 15.6 h, the “AUC∞/dose” value ([12]; single dose 75 mg) was 148.6 ± 64.1 ng·mL·h/mg and the Cmax/dose ([12]; single dose 75 mg) was 5.9 ± 0.9 ng/mL/mg. The fe ([12]; single dose 75 mg) was 0.94±0.64%, the “AUC∞/dose” value ([12]; single dose 150 mg) was 94.3 ± 38.2 ng·mL·h/mg and the CL/F ([12]; single dose 150 mg) was 24.8 ± 5.6 L/h. The Cmax/dose ([12]; single dose 150 mg) was 4.1 ± 0.7 ng/mL/mg, the fe ([12]; single dose 150 mg) was 0.65±0.34% and the “AUC∞/dose” value ([12]; single dose 300 mg) was 60.4 ± 30.5 ng·mL·h/mg. The CL/F ([12]; single dose 300 mg) was 40.3 ± 12.4 L/h, the Cmax/dose ([12]; single dose 300 mg) was 2.8 ± 0.7 ng/mL/mg and the fe ([12]; single dose 300 mg) was 0.52±0.41%. The “AUC∞/dose” value ([12]; single dose 600 mg) was 56.2 ± 31.1 ng·mL·h/mg, the CL/F ([12]; single dose 600 mg) was 50.0 ± 21.9 L/h and the Cmax/dose ([12]; single dose 600 mg) was 2.1 ± 0.7 ng/mL/mg. For the same compound, the fe ([12]; single dose 600 mg) was 0.25±0.17% and the antiviral activity [13] was “low-nanomolar range”.

`CCC1(c2ccccc2)C(=O)NC(=O)NC1=O` [Phenobarbital, reference compound] showed a fold induction at 1 mM [9] of 8.9 and a fold induction at 1 mM ([11]; human, probe testosterone) of 9.9.

For `O=C1Nc2ccc(Cl)cc2[C@@](C#CC2CC2)(C(F)(F)F)O1` [efavirenz], the autoinduction phenomenon [14] is listed as “autoinduction phenomenon has also been observed” and the “dose proportionality of Cmax or AUC” value ([14]; single oral administration 100–1,600 mg) is listed as “increased less than dose-proportionally”.

In the case of `Cc1ccnc2c1NC(=O)c1cccnc1N2C1CC1` [nevirapine], the autoinduction phenomenon [14] is given as “autoinduction phenomenon has also been observed” and the “dose proportionality of Cmax or AUC” value ([14]; single oral administration 2.5–400 mg) is given as “increased less than dose-proportionally”.
